Assay type in all cases: cell-based
The subject of one assay is viable cells in culture. The experiment in a line: Cell viability assay at 10 μM (CellTiter-Glo, Table VII).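 Further: graded A 0-20%; B 21-40%; C 41-60%; D over 60% viable cells relative to DMSO control.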 As to conditions: compound 10 μM, 72 h. A digest of the protocol:
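Cells were seeded at 1000 cells/well in 96-well plates in 100 μl culture medium and incubated for 72 h with 10 μM compound or a DMSO control. ATP content, which reflects metabolically active and therefore viable cells, was then determined by CellTiter-Glo luminescence (Promega) per the manufacturer's instructions and expressed relative to the DMSO control.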

Another assay deals with tumor cell. The assay can be described thus: Matrigel outgrowth assay/branching assay (Table Va). A digest of the protocol: (§1)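 Matrigel 3 mg/ml, polymerized 1 h 37° C; 5000 cells/well + cmpd 3.125/1.56/0.78 μM or DMSO. Imaged 48/72/96 h, 5× objective. Positive = total branching block.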
The subject of another assay is U118. The experiment in a line: Matrigel outgrowth assay/branching assay. As to conditions: Table Vb, read-out: Total branching inhibition in Matrigel U118. A digest of the protocol:
as §1

Another assay relates to A172. The experiment in a line: Matrigel outgrowth assay/branching assay. As to conditions: Homo sapiens, A 172, Table Vb, read-out: Total branching inhibition in Matrigel A172. In a few lines:
as §1

Another assay relates to SF126. The assay can be described thus: Matrigel outgrowth assay/branching assay. As to conditions: Homo sapiens, SF-126, Table Vb, read-out: Total branching inhibition in Matrigel SF126. A digest of the protocol:
as §1

The test system of the next assay is cells. The assay can be described thus: Boyden chamber migration assay (Table VI). The conditions noted are these: Homo sapiens, Hs-578T, 16 h, Hs578T cells; 16 h migration. In a few lines:
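Migration read-out is a count of fixed cells on the underside of an […] insert membrane after 16 h. Chemoattractant was medium with 10% FCS in the lower chamber; 20000 cells started in serum-free medium with 0.1% BSA above, and those left on top were removed by swab.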

Where [1] appears, read: Homo sapiens, HCT-116, HCT116 def, read-out: percentage (%) of viable cells HCT 116def.
[2] abbreviates: Homo sapiens, HCT-116, HCT116 wt, read-out: percentage (%) of viable cells HCT 116wt.
Setting [3] is: Homo sapiens, HT-29, HT29, read-out: percentage (%) of viable cells HT29.
Setting [4] is: Homo sapiens, NCI-H358, H358, read-out: percentage (%) of viable cells H358.
Where [5] appears, read: Homo sapiens, NCI-H1650, H1650, read-out: percentage (%) of viable cells H1650.
Where [6] appears, read: Homo sapiens, NCI-H1666, H1666, read-out: percentage (%) of viable cells H1666.
[7] abbreviates: Homo sapiens, NCI-H1975, H1975, read-out: percentage (%) of viable cells H1975.
The mark [8] stands for this setting: Homo sapiens, NCI-H1993, H1993, read-out: percentage (%) of viable cells H1993.
[9] abbreviates: Homo sapiens, A549, read-out: percentage (%) of viable cells A549.
Where [10] appears, read: Homo sapiens, HCC827, read-out: percentage (%) of viable cells HCC827.
The mark [11] stands for this setting: Homo sapiens, SW480, read-out: percentage (%) of viable cells SW480.
Setting [12] is: RKO, read-out: percentage (%) of viable cells RKO.
Where [13] appears, read: Homo sapiens, C8161 cells, read-out: Total branching inhibition in Matrigel C8161.
[14] abbreviates: Homo sapiens, Hs-578T, Hs578T cells, read-out: Total branching inhibition in Matrigel Hs578T.
Setting [15] is: U118 cells, read-out: Total branching inhibition in Matrigel U118.
[16] abbreviates: U138 cells, read-out: Total branching inhibition in Matrigel U138.

Structures are written as SMILES. pIC50: −log10 of the molar value. Read-outs that look alike come from different tables or passages of the source. Some results are limits rather than exact numbers.

Take `COc1cc2c(Oc3ccc(NS(=O)(=O)c4ccccc4[N+](=O)[O-])cc3F)ccnc2cc1OCCCN1CCCCC1` [Example 7, N-{3-Fluoro-4-[6-methoxy-7-(3-piperidin-1-yl-propoxy)-quinolin-4-yloxy]-phenyl}-2-nitro-benzenesulfonamide]: the viability at 10 µM with viable cells in culture (setting [1]) was 21 to 40%; in the assay on viable cells in culture (setting [2]), 0 to 20%; in the assay with viable cells in culture (setting [3]), 0 to 20%; with viable cells in culture (setting [4]) it was 0 to 20%; in the assay on viable cells in culture (setting [5]), 0 to 20%; in the assay with viable cells in culture (setting [6]), 21 to 40%. Moreover, the viability at 10 µM with viable cells in culture (setting [7]) fell in the range of 21 to 40%; in the assay on viable cells in culture (setting [8]), 21 to 40%; in the assay with viable cells in culture (setting [9]), 41 to 60%; in the assay with viable cells in culture (setting [10]) it was 0 to 20%; with viable cells in culture (setting [11]), 0 to 20%; with viable cells in culture (setting [12]) it was 0 to 20%. For the same molecule, the pIC50 with tumor cell (setting [13]) was at least 5.30; in the assay on tumor cell (setting [14]) it was 4.30 to 5.30; in the assay on tumor cell (setting [15]) it was at least 5.30; in the assay on tumor cell (setting [16]) it was 4.30 to 5.30; in the assay with cells, at least 5.30. Moreover, the values for the IC100 in the assay with U118, in the assay on A172 and with SF126 were at most 12.5 µM, above 12.5 µM and at most 12.5 µM, respectively.
Take `COc1cc2c(Oc3ccc(NS(=O)(=O)c4cccc(-c5ccccc5)c4)cc3F)ccnc2cc1OCCCN1CCCCC1` [Example 8, Biphenyl-3-sulfonic acid {3-fluoro-4-[6-methoxy-7-(3-piperidin-1-yl-propoxy)-quinolin-4-loxy]-phenyl}-amide]: the viability at 10 µM in the assay with viable cells in culture (setting [1]) lay within 0 to 20%; in the assay on viable cells in culture (setting [2]) it was 0 to 20%; with viable cells in culture (setting [3]), 21 to 40%; in the assay on viable cells in culture (setting [4]) it was 0 to 20%; in the assay with viable cells in culture (setting [5]) it was 0 to 20%; in the assay with viable cells in culture (setting [6]), 21 to 40%. For the same molecule, the viability at 10 µM in the assay with viable cells in culture (setting [7]) was 0 to 20%; in the assay with viable cells in culture (setting [8]), 0 to 20%; in the assay with viable cells in culture (setting [9]), 41 to 60%; in the assay on viable cells in culture (setting [10]) it was 0 to 20%; in the assay with viable cells in culture (setting [11]), 0 to 20%; with viable cells in culture (setting [12]), 21 to 40%. Moreover, the pIC50 in the assay on tumor cell (setting [13]), in the assay on tumor cell (setting [14]), with tumor cell (setting [15]), in the assay on tumor cell (setting [16]) and with cells was at least 5.30 each time. For the same molecule, the IC100 with U118, in the assay on A172 and with SF126 was at most 12.5 µM each time.
With `COc1cc2c(Oc3ccc(NS(=O)(=O)c4cccc(Oc5ccccc5)c4)cc3F)ccnc2cc1OCCCN1CCCCC1` [Example 10, N-{3-Fluoro-4-[6-methoxy-7-(3-piperidin-1-yl-propoxy)-quinolin-4-yloxy]-phenyl}-3-phenoxy-benzenesulfonamide], the viability at 10 µM in the assay on viable cells in culture (setting [1]) was 0 to 20%; in the assay on viable cells in culture (setting [2]) it was 0 to 20%; in the assay with viable cells in culture (setting [3]), 21 to 40%; in the assay with viable cells in culture (setting [4]), 0 to 20%; in the assay on viable cells in culture (setting [5]), 21 to 40%; with viable cells in culture (setting [6]), 21 to 40%. The viability at 10 µM in the assay with viable cells in culture (setting [7]) lay in the range of 21 to 40%; in the assay with viable cells in culture (setting [8]), 0 to 20%; in the assay with viable cells in culture (setting [9]), 21 to 40%; in the assay on viable cells in culture (setting [10]) it was 0 to 20%; in the assay on viable cells in culture (setting [11]), 0 to 20%; in the assay with viable cells in culture (setting [12]) it was 0 to 20%. The pIC50 in the assay with tumor cell (setting [13]) was at least 5.30; in the assay on tumor cell (setting [14]), at least 5.30; in the assay with tumor cell (setting [15]), at least 5.30; in the assay with tumor cell (setting [16]), 4.30 to 5.30; in the assay with cells, at least 5.30. For the same molecule, the IC100 with U118, in the assay with A172 and with SF126 was at most 12.5 µM in each case.
Turning to `COc1cc2c(Oc3ccc(NS(=O)(=O)c4cc(F)ccc4F)cc3F)ccnc2cc1OCCCN1CCN(C)CC1` [Example 12, 2,5-Difluoro-N-(3-fluoro-4-{6-methoxy-7-[3-(4-methyl-piperazin-1-yl)-propoxy]-quinolin-4-yloxy}-phenyl)-benzenesulfonamide], the viability at 10 µM in the assay with viable cells in culture (setting [1]) fell in the range of 21 to 40%; with viable cells in culture (setting [2]), 21 to 40%; with viable cells in culture (setting [3]), 21 to 40%; in the assay with viable cells in culture (setting [4]), 0 to 20%; in the assay on viable cells in culture (setting [5]) it was 21 to 40%; with viable cells in culture (setting [6]), 41 to 60%. Moreover, the viability at 10 µM is 41 to 60% in the assay with viable cells in culture (setting [7]); 41 to 60% in the assay with viable cells in culture (setting [8]); above 60% in the assay on viable cells in culture (setting [9]); 21 to 40% with viable cells in culture (setting [10]); 21 to 40% with viable cells in culture (setting [11]); 0 to 20% with viable cells in culture (setting [12]). In addition, the pIC50 in the assay with tumor cell (setting [13]), in the assay on tumor cell (setting [14]), in the assay with tumor cell (setting [15]), with tumor cell (setting [16]) and in the assay with cells was at least 5.30 each time. For the same molecule, the IC100 in the assay with U118, in the assay on A172 and with SF126 was at most 12.5 µM each time.
Take `COc1cc2c(Oc3ccc(NS(=O)(=O)c4ccccc4C(F)(F)F)cc3F)ccnc2cc1OCCCN1CCN(C)CC1` [Example 24, N-(3-Fluoro-4-{6-methoxy-7-[3-(4-methyl-piperazin-1-yl)-propoxy]-quinolin-4-yloxy}-phenyl)-2-trifluoromethyl-benzenesulfonamide]: the pIC50 with tumor cell (setting [13]) was at least 5.30; in the assay on tumor cell (setting [14]) it was at least 5.30; in the assay on tumor cell (setting [15]), at least 5.30; in the assay on tumor cell (setting [16]), 4.30 to 5.30; in the assay with cells it was at least 5.30. For the same molecule, the IC100 in the assay on U118, with A172 and with SF126 was at most 12.5 µM throughout.
Regarding `COc1cc2c(Oc3ccc(NS(=O)(=O)c4ccccc4Cl)cc3F)ccnc2cc1OCCCN1CCCC(C)C1` (centres unmarked) [Example 38, 2-Chloro-N-(3-fluoro-4-{6-methoxy-7-[3-(3-methyl-piperidin-1-yl)-propoxy]-quinolin-4-yloxy}-phenyl)-benzenesulfonamide], the viability at 10 µM in the assay on viable cells in culture (setting [1]) is 21 to 40%; in the assay with viable cells in culture (setting [2]) it was 21 to 40%; in the assay on viable cells in culture (setting [3]), 0 to 20%; with viable cells in culture (setting [4]), 0 to 20%; in the assay with viable cells in culture (setting [5]) it was above 60%; with viable cells in culture (setting [6]), 21 to 40%. In addition, the viability at 10 µM is 21 to 40% in the assay with viable cells in culture (setting [7]); 21 to 40% in the assay on viable cells in culture (setting [8]); above 60% with viable cells in culture (setting [9]); 41 to 60% in the assay with viable cells in culture (setting [10]); 0 to 20% in the assay on viable cells in culture (setting [11]); 0 to 20% with viable cells in culture (setting [12]). The pIC50 is at least 5.30 with tumor cell (setting [13]); at least 5.30 in the assay on tumor cell (setting [14]); at least 5.30 in the assay on tumor cell (setting [15]); 4.30 to 5.30 with tumor cell (setting [16]); 4.30 to 5.30 in the assay with cells. In addition, the IC100 with U118 was above 12.5 µM; in the assay with A172, at most 12.5 µM; in the assay on SF126 it was at most 12.5 µM.
As to `COc1cc2c(Oc3ccc(NS(=O)(=O)c4ccc(F)cc4F)cc3F)ccnc2cc1OCCCN1CCCC(C)C1` (centres unmarked) [Example 47, 2,4-Difluoro-N-(3-fluoro-4-{6-methoxy-7-[3-(3-methyl-piperidin-1-yl)-propoxy]-quinolin-4-yloxy}-phenyl)-benzenesulfonamide], the viability at 10 µM fell in the range of 21 to 40% in the assay on viable cells in culture (setting [1]); 0 to 20% in the assay with viable cells in culture (setting [2]); 41 to 60% in the assay on viable cells in culture (setting [3]); 0 to 20% in the assay with viable cells in culture (setting [4]); 41 to 60% with viable cells in culture (setting [5]); 21 to 40% with viable cells in culture (setting [6]). Besides, the viability at 10 µM in the assay with viable cells in culture (setting [7]) lay in the range of 0 to 20%; with viable cells in culture (setting [8]), 0 to 20%; in the assay with viable cells in culture (setting [9]), 41 to 60%; with viable cells in culture (setting [10]) it was 41 to 60%; in the assay with viable cells in culture (setting [11]), 21 to 40%; in the assay on viable cells in culture (setting [12]), 0 to 20%. Also, the pIC50 was at least 5.30 in the assay with tumor cell (setting [13]); at least 5.30 in the assay with tumor cell (setting [14]); at least 5.30 in the assay with tumor cell (setting [15]); 4.30 to 5.30 with tumor cell (setting [16]); at least 5.30 with cells. Moreover, the IC100 was at most 12.5 µM in the assay on U118, above 12.5 µM with A172 and at most 12.5 µM with SF126.

The values are drawn from patent US9169241B2, “Quinolinyloxyphenylsulfonamides” (Max-Planck-Gesellschaft Zur Forderung der Wissenschaften …, priority 2009, dated 2015).
